Experimental data from a melting point compilation (Tetko et al.; mined from patent text by program, amines drawn as free bases though some values may be those of a salt).

SMILES	melting point
CCOC(=O)CSc1nc(N)cc(Cl)n1	113 to 116 °C
CC(=O)c1cc2c(s1)C(=O)c1ccsc1C2=O	223 to 225 °C
OCCCOc1cc(-c2ccccc2)cc(-c2ccccc2)n1	94 °C
CCc1cc(C(C)=O)c(O)cc1OCCCCCCc1nnn[nH]1	126 to 127 °C
C#CCOc1ccc2c(C(=O)OCC)cc(=O)oc2c1	230 °C
CC[C@H](N)c1nc2c(C(F)(F)F)cccc2c(O)c1C(=O)Nc1nccs1	206 °C
CCOC(C[C@@H](CO)Cn1cnc2c(Cl)nc(N)nc21)OCC	156 to 158 °C
CCCCOCCCn1c(CCCC)nc2cnc3cccnc3c21	56.5 to 57.5 °C
NC1=CC=C2C=c3c(cnn3-c3ccccc3)=C2C1=O	200 to 202 °C
CO/C(=C\C=C\c1cc2ccccc2[nH]1)C(=O)O	189 to 190 °C
CS(=O)(=O)Nc1cc2oc(C(=O)O)cc(=O)c2cc1Oc1ccccc1	> 250 °C
CCC(=O)Nc1cc(NC(=O)CC)cc([N+](=O)[O-])c1	197 to 198 °C
CN(C)c1nc(-c2ccc3c(c2)OCO3)c2cc3c(cc2n1)OCO3	200 to 206 °C
CCC(=O)OCCOCn1cnc2c(=O)[nH]c(N)nc21	223 to 226 °C
CN(C(=O)c1nsc2ccc(-n3c(=O)cc(C(F)(F)F)n(C)c3=O)cc12)S(C)(=O)=O	120 to 122 °C
O=C1CC(C(=O)O)N(C(=O)CCS)N1 (stereo not drawn)	140 to 142 °C
CC1(c2ccccc2)SC(=S)N(Nc2ccccc2)C1=NOC(=O)Nc1ccc(Cl)c(Cl)c1 (stereo not drawn)	95 to 96 °C
OC(CCl)(c1ccccc1)c1ccccc1	56 to 57 °C
CCCCCCCC1=CC(=O)N(Cc2ccccc2)C1(O)CBr (stereo not drawn)	94 to 96 °C
COc1cc([N+](=O)[O-])ccc1-c1sc(C)nc1C	123 to 125 °C
CCc1ncn(Nc2cccc(C)c2)c1-c1ccccc1	158 to 160 °C
COc1nc2cc(C)c(Cl)c(N)c2nc1OC	169 to 170 °C
CCCCCCCCCCCCCC[C@]1(C)OO[C@@H]2C[C@H]1CC(=O)[C@@H]2C	46 °C

SMILES	melting point
Cc1cc(-c2ccc(C(F)(F)F)cc2)nc(-c2ccnc(-c3cccc(S(N)(=O)=O)c3)c2)c1	238 °C
COC(=O)CCCOc1ccc(C=O)cc1OC	69 °C
COc1nc2ncccc2c2nc(S(=O)(=O)Nc3c(Cl)cccc3Cl)nn12	290 to 293 °C
CCn1ncc2c(NCCc3ccccc3)c3ccccc3nc21	157 to 158 °C
CCCCCCC(Nc1ccccc1)=C1C(=O)ON=C1C	83 to 84 °C
CC(Cc1ccc(OCCCCO)cc1)NCC(O)c1cccc(C(F)(F)F)c1 (stereo not drawn)	69 to 76 °C
CCc1c(CC(=O)NCCCCCCN)ccc(OC)c1OC	136 to 138 °C
CC(C)(C)OC(=O)C(F)=CC1C(C(=O)O)C1(C)C (stereo not drawn)	90 °C
COc1ccc(CON(CCCBr)S(=O)(=O)c2ccc(C)cc2)cc1	89.5 to 91.5 °C
Cc1nc2c(OCc3ccccc3)cc(Br)cc2n1COCC[Si](C)(C)C	94 to 95 °C
CCOC(=O)c1c2n(c3c(Cl)c(F)c(F)cc3c1=O)C(C)S2 (stereo not drawn)	191 to 194 °C
O=c1[nH]c(NCCSCc2nccs2)nnc1Cc1cccnc1	158 to 159 °C
Cc1cc(C)cc(Oc2ccc(Oc3cc(C)cc(C)c3)cc2)c1	103 °C
CC(C)[C@H](NC(=O)NCc1cccnc1)C(=O)NC(Cc1ccccc1)C(O)C(Cc1ccccc1)NC(=O)[C@@H](NC(=O)OCc1ccccc1)C(C)C (stereo partly drawn)	205 to 206 °C
O=C(O)CC(CC(=O)Nc1cc(OCC=C(Cl)Cl)c(Cl)cc1F)C(F)(F)F (stereo not drawn)	117 to 118 °C
CCCCN(C(=O)NCCCCCCNC(=O)N(CCCC)C1CC(C)(CC)NC(C)(CC)C1C)C1CC(C)(CC)NC(C)(CC)C1C (stereo not drawn)	146 °C
Cc1nc(-c2ccc(F)cc2)c(CO)c(C(C)C)c1C#N	150 °C
Cn1c(-c2ccc3ccccc3c2)n[nH]c1=S	223 to 225 °C
CCOC(=O)c1ncn(-c2ccn(C)n2)c1N	168 to 170 °C
CCC1C(=O)c2cc(OC)c(Cl)c(Cl)c2C1=O (stereo not drawn)	153 to 154 °C
c1ccc(OC2CN(C(c3ccccc3)c3ccccc3)C2)cc1	83 to 85 °C
COC(=O)CCC(C(=O)C=Cc1ccc(OC(C)=O)c(OC(F)(F)F)c1)C(=O)C=Cc1ccc(OC(C)=O)c(OC(F)(F)F)c1 (stereo not drawn)	149 to 150 °C

Second part, the compound after the results:

melting point	SMILES
237 °C	Cc1nnc2n1-c1ccc(Cl)cc1C(c1ccccc1)S2 (stereo not drawn)
190 to 191 °C	CCc1cc(OCc2ccccc2)ccc1C(=O)NNC(=O)Cc1cccc(O)c1
149 to 150 °C	COc1ccc(C(=O)Nc2ccccc2)c(C)c1
96 to 99 °C	Nc1ccc(-c2ccccc2)cc1N
150 °C	O=C(CCc1nc(-c2ccccn2)no1)NC1CCN(Cc2ccc(F)c(Cl)c2)CC1
95 to 97 °C	CCCc1nn(-c2ccc(C(F)(F)F)cn2)cc1CCCCOc1nn(C)cc1CC(=O)O
197 °C	CCCC1=NN(c2ccc(C#N)cc2)C(=O)C1=CNc1ccccc1CC
160 to 162 °C	O=C(CCC(=O)N1CCC(c2ccc(Cl)cc2)CC1)c1ccc2c(c1)CCN(C1CCCC1)CC2
125 to 130 °C	Oc1ccc(-c2nc(-c3cccs3)c[nH]2)cc1Br
155 to 157 °C	O=C(Nc1ccc(-n2nc(C(F)(F)F)cc2C(F)(F)F)cc1)c1cncc(Br)c1
54 to 56 °C	CC(=O)OC/C=C/c1ccc(-c2ccccc2C)cc1
250 to 252 °C	CC(C)NC1=NS(=O)(=O)c2ccc(Oc3ccccc3)cc2N1
230 to 232 °C	Cc1nc(NC(=O)c2cccc(OC(F)(F)F)c2)sc1C(=O)NCc1ccccc1
95.2 °C	CCOC(=O)N1CC[C@H](N(Cc2ccccc2)Cc2ccccc2)[C@H](OC)C1 (relative stereo)
88 to 89 °C	CC(=O)Oc1cc(OCC(OC(C)=O)c2ccc3c(c2)C(C)(C)CCC3(C)C)ccc1C(=O)O (stereo not drawn)
204 to 206 °C	N#Cc1cc(C(=O)c2ccc(C(F)(F)F)cc2)cc(O)c1O
60 to 62 °C	CC(O)c1ccc(C2=CCCCC2)cc1 (stereo not drawn)
128 to 130 °C	Cc1noc2ccc(Oc3ncccc3C(=O)NCc3ccc(C(C)(C)O)cc3)cc12
125 to 126 °C	Cc1cn(-c2ccc(NC(=O)c3ccc(C)c(C#Cc4ccc(NC5CC5)nn4)c3)cc2C(F)(F)F)cn1
140 to 143 °C	CC1CCN(c2cc(F)cc(C(=O)Nc3ccc(OCc4n[nH]c(=O)n4-c4ccccc4)c4ccccc34)c2)CC1
191 to 192 °C	COc1cc(NC(=O)Nc2ccc(N3CCN(C(=O)Nc4cc(OCCO)ccc4Cl)CC3)cc2)cc(OC)c1
130 to 132 °C	OC1Cc2c(Cl)cccc2Sc2ccc(C(F)(F)F)cc21 (stereo not drawn)
149 to 150 °C	COc1ccc2cc(C(=O)C(C)N3CCN(Cc4ccccc4)CC3)ccc2c1 (stereo not drawn)
96 °C	CCCc1nc(C(=O)CC)c(C#N)n1C(c1ccccc1)(c1ccccc1)c1ccccc1
189 to 191 °C	CN(C)c1ccc(C(=O)N2CCC(c3[nH]nc4c3C(=O)c3c(NC(=O)NN5CCOCC5)cccc3-4)CC2)cc1
166 °C	COc1cc(C=CC(=O)c2ccc([N+](=O)[O-])cc2)cc(OC)c1
134 to 135 °C	CCC(C)CNC(=O)c1ccc2cccc(Cc3ccc(C(=O)OC)cc3OC)c2c1 (stereo not drawn)

melting point	SMILES
176 °C	Clc1ccc(C2=NNCC2n2cc(Cl)cn2)cc1 (stereo not drawn)
75 to 79 °C	CC(C)Oc1ccccc1OCCCN1CCC(C(O)(c2ccc(F)cc2)c2ccc(F)cc2)CC1
202 to 204 °C	COC1Cn2ccc(=O)c(OCc3ccccc3)c2C(c2ccccc2)O1 (stereo not drawn)
125 to 127 °C	CC[C@H](C)[C@H](NS(=O)(=O)c1cccc2ccccc12)C(=O)N[C@H]1CCOC1OC (stereo partly drawn)
167 to 168 °C	COc1ccc(Cn2cnc3c(-c4ccco4)nc(N(C(C)=O)C(C)=O)nc32)cc1
176 to 178 °C	N#Cc1ccccc1-c1ccc(O)cc1
178 to 179 °C	COc1ccc(CCC(=O)C2CCC3C4CCc5cc(C(=O)O)ccc5C4CCC23C)cc1 (stereo not drawn)
58 to 60 °C	COC(=O)C1=C2Nc3ccccc3C23CCN(Cc2ccccc2)C3CC1 (stereo not drawn)
135 to 136 °C	Cc1c(N2CC[C@H](NC(=O)OC(C)(C)C)C2)c(F)c(N)c2c(=O)c(C(=O)O)cn(C3CC3)c12
76 to 77 °C	COC(=O)c1ccc(-c2ccc(C(OC)OC)cc2)cc1
126 to 128 °C	CCC(C)N1CCC(CNc2ccc(Cl)cc2C(=O)Nc2ccc(C)cn2)CC1 (stereo not drawn)
86 to 88 °C	CCOC(=O)N1CCC(c2ccc(N3CC(COC)OC3=O)cc2)CC1 (racemic)
210 to 212 °C	CCOc1cccc(C(CO)n2nc(C(=O)O)c3c2-c2ccc(OCc4cncnc4)cc2CC3)c1 (stereo not drawn)
179 to 180 °C	CCCn1c(=O)n(CCC)c2cc3c(N4CCN(C(=O)Nc5ccc(Oc6ccccc6)cc5)CC4)ncnc3cc21
72 to 75 °C	CCCc1c(OCCCCCc2ccc(OC)c(OC)c2)ccc(C(C)=O)c1O
118 to 119 °C	O=[N+]([O-])c1ccc(Cc2nc3c(s2)CCCC3)cc1
146 to 148 °C	CCCn1nc(-c2sc(C(=O)NC(C)C)nc2-c2ccccc2)ccc1=O
244 to 247 °C	CCCOc1ccc(-c2ccc3c(c2)C=C(C(=O)Nc2ccc(CN(C)C4CCOCC4)cc2)CCS3(=O)=O)cc1
> 300 °C	C=C1C(O)C(CO)OC1n1ccc(NC(=O)c2ccccc2)nc1=O (stereo not drawn)
88.5 to 90 °C	COC(=O)C1CCCN1C(=O)c1ccccc1 (stereo not drawn)
119 to 120 °C	O=P1(c2ccc(F)cc2)c2ccccc2CN1c1ccccc1 (stereo not drawn)
171 to 172 °C	CC1(C)OC(=S)Nc2ccc(-c3ccccc3Cl)cc21
142 °C	CCOC(=O)c1ccccc1N(CC(=O)OC(C)(C)C)C(=O)CNC(=O)Nc1cccc(C)c1
265 °C	COc1cc(C(=O)Cn2c(-c3nonc3N)nc3ccccc32)ccc1O
149 to 150 °C	COC(=O)c1ccc(-c2nc(-c3cc(Cl)sc3Cl)cs2)cc1
150 to 152 °C	COc1ccc2[nH]c(C(=NO)c3ccccc3)cc2c1
